Values of other authors, collected in patent US7881871B2, “Method for designing surfaces” (Bio-Layer Pty Limited, priority 2003, dated 2011).
Where two headings read alike, the source gives them in different places.

Experiments:
[1] = test system: antibodies (Fc fragment)
[2] = test system: monoclonal antibodies (IgG subclasses)

Substance | affinity for antibodies ([1]; chicken antibodies) | affinity for antibodies ([1]; human, horse, cow, pig and rabbit antibodies) | affinity for antibodies ([1]; sheep, goat, hamster, guinea pig, rat and mouse antibodies) | affinity for monoclonal antibodies ([2]; human IgG1, IgG2, IgG3 and IgG4, mouse IgG1, IgG2a, IgG2b and IgG3, rat IgG2a) | affinity for monoclonal antibodies ([2]; rat IgG1, IgG2b and IgG2c) | affinity for antibodies ([1]; horse, cow and mouse antibodies) | affinity for antibodies ([1]; human, pig, rabbit and guinea pig antibodies) | affinity for antibodies ([1]; sheep, goat, chicken, hamster and rat antibodies) | affinity for monoclonal antibodies ([2]; human IgG1, IgG2, IgG3, mouse IgG2a and IgG2b) | affinity for monoclonal antibodies ([2]; human IgG1, rat IgG1, IgG2a and IgG2b) | affinity for monoclonal antibodies ([2]; mouse IgG1 and IgG3, rat IgG2c)
Protein G: 30,000 to 35,000 dalton protein isolated from the cell wall of beta-hemolytic Streptococci | low affinity | high affinity | moderate affinity | high affinity | moderate or low affinity |  |  |  |  |  | 
Protein A: 42,000 dalton cell-wall-associated protein of S. Aureus with IgG binding activity |  |  |  |  |  | moderate affinity | high affinity | low or no affinity | high affinity | no affinity | moderate or low affinity
